Laboratory results as given in patent US20240142382A1, “METHODS AND COMPOSITIONS FOR CALIBRATED LABEL-FREE SURFACE-ENHANCED RAMAN SPECTROSCOPY” (Virginia Tech Intellectual Properties, Inc., priority 2021, published 2024).

Legend:
HCC-1806 = HCC-1806 triple-negative breast cancer cells; read-out: half-maximal inhibition concentration (IC50); cited from earlier work
HCC-1806 cells = experiment: label-free SERS mapping with PLS-DA of living cells treated with PTX dosages; assay type: cell-based, human; settings: 1.5 nM, 5 nM and 15 nM PTX, HCC-1806, after ERS calibration
MDA-MB-231 cells = experiment: as above; assay type: cell-based, human; settings: 1.5 nM PTX, MDA-MB-231, PLS-DA after ERS calibration

CC(=O)O[C@H]1C(=O)[C@@]2(C)[C@H]([C@H](OC(=O)c3ccccc3)[C@]3(O)C[C@H](OC(=O)[C@H](O)[C@@H](NC(=O)c4ccccc4)c4ccccc4)C(C)=C1C3(C)C)[C@]1(OC(C)=O)CO[C@@H]1C[C@@H]2O [PTX, paclitaxel]
IC50 (HCC-1806): 1.5 nM | separation of PLS-DA scatters of control group (0 nM) from PTX treated groups (HCC-1806 cells): completely separate | changes of SERS-measured molecular profiles versus control group (0 nM) (MDA-MB-231 cells): not enough to elicit significant changes
